Here are results for 25 compounds from patent US9498483B2, “2,3,5-trisubstituted thiophene compounds and uses thereof” (priority 2010, dated 2016).

The structures appear in SMILES notation. Bounds are passed on as bounds.

One experiment concerns the target T1, HCV polymerase (Hepatitis C virus genotype 1b, UniProt Q9WMX2).
T1 construct: (His)6 (C); made in house; host or cells: XL-1 cells (E. coli, by own knowledge)
Put plainly: Polymerase assay of Biological Example 1 (IC50 values of Table 3). It is filed as biochemical. To be noted: IC50 values of Table 3, polymerase assay of Biological Example 1; read-out: NS5B-enzyme3.

The subject of experiment [1] is HCV replicon I389luc-ubi-neo/NS3-3′/ET in ET (Huh-lucubineo-ET) cells. Briefly: Replicon assay (Biological Example 2), luciferase readout. It is filed as cell-based. To be noted: Hepatitis C virus. The method, boiled down:
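EC50 values come from Hill fits of % inhibition of replicon-driven firefly luciferase, relative to no-compound wells. Compounds were serially diluted (10 points, 3-fold, 0.1 nM–50 μM final, 0.5% DMSO) onto ET replicon cells and read after 48 h.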
For orientation: Replicon systems follow genome replication, usually without infectious particles.

Setting [2] is: ET cells, luciferase activity 48 hours after compound.

With `C[C@@H]1CN(c2ccc(S(=O)(=O)N3CC(=O)N(c4cc(-c5ccccc5)sc4C(=O)O)[C@H](C4CCCCC4)C3)cn2)C[C@H](C)N1` [Compound 150, 3-{(R)-2-Cyclohexyl-4-[6-((3R,5S)-3,5-dimethyl-piperazin-1-yl)-pyridine-3-sulfonyl]-6-oxo-piperazin-1-yl}-5-phenyl-thiophene-2-carboxylic acid], the IC50 at HCV polymerase was 4 nM; in experiment [1] (setting [2]) it was at most 100 nM.

Take `O=C(O)c1sc(-c2ccccc2)cc1N1C(=O)CN(S(=O)(=O)c2cccc(-c3ccccc3)c2)CC1C1CCCCC1` (centres unmarked) [Compound 65, 3-[4-(Biphenyl-3-sulfonyl)-2-cyclohexyl-6-oxo-piperazin-1-yl]-5-phenyl-thiophene-2-carboxylic acid]: the IC50 is 45 nM on HCV polymerase; 100 to 5000 nM in experiment [1] (between 100 nM and 5.0 uM).

For `CC(C)(C)C#Cc1cc(N2C(=O)CCCC[C@H]2C2CCCCC2)c(C(=O)O)s1` [Compound 335, 3-((S)-2-Cyclohexyl-7-oxo-azepan-1-yl)-5-(3,3-dimethyl-but-1-ynyl)-thiophene-2-carboxylic acid], the IC50 on HCV polymerase was 24 nM; in experiment [1] (between 100 nM and 5.0 uM), 100 to 5000 nM.

In the case of `CC(C)(C)C#Cc1cc(N2C(=O)OCCC2C2CCCCC2)c(C(=O)O)s1` (centres unmarked) [Compound 308, 3-(4-Cyclohexyl-2-oxo-[1,3]oxazinan-3-yl)-5-(3,3-dimethyl-but-1-ynyl)-thiophene-2-carboxylic acid], the results for the IC50 (at HCV polymerase; in experiment [1] (setting [2])) were 14 nM and at most 100 nM, respectively.

Consider `O=C(O)c1sc(-c2ccccc2)cc1N1C(=O)CN(Cc2ccccc2)C[C@H]1C1CCCCC1` [Compound 17, 3-((R)-4-Benzyl-2-cyclohexyl-6-oxo-piperazin-1-yl)-5-phenyl-thiophene-2-carboxylic acid], for which the IC50 on HCV polymerase is 24 nM; in experiment [1] (between 100 nM and 5.0 uM) it was 100 to 5000 nM.

With `C[C@@H]1CCCN1c1ccc(S(=O)(=O)N2CC(=O)N(c3cc(-c4ccccc4)sc3C(=O)O)C(C3CCCCC3)C2)cc1` (stereo partly drawn) [Compound 127, 3-{2-Cyclohexyl-4-[4-((R)-2-methyl-pyrrolidin-1-yl)-benzenesulfonyl]-6-oxo-piperazin-1-yl}-5-phenyl-thiophene-2-carboxylic acid], the IC50 was 3 nM at HCV polymerase and at most 100 nM in experiment [1] (setting [2]).

With `O=C(O)c1sc(-c2ccc(Cl)cc2)cc1N1C(=O)CN(S(=O)(=O)c2ccc(N3C[C@H]4C[C@@H]3CO4)nc2)C[C@H]1C1CCCCC1` [Compound 274, 5-(4-Chloro-phenyl)-3-{(R)-2-cyclohexyl-4-[(1R,4R)-6-(2-oxa-5-aza-bicyclo[2.2.1]hept-5-yl)-pyridine-3-sulfonyl]-6-oxo-piperazin-1-yl}-thiophene-2-carboxylic acid], the IC50 on HCV polymerase is 1 nM; in experiment [1] (setting [2]) it was at most 100 nM.

As to `Cc1ccc(-c2cc(N3C(=O)C(C)(O)CCC3C3CCCCC3)c(C(=O)O)s2)cc1` (centres unmarked) [Compound 5, 3-(6-Cyclohexyl-3-hydroxy-3-methyl-2-oxo-piperidin-1-yl)-5-p-tolyl-thiophene-2-carboxylic acid], the IC50 is 52 nM on HCV polymerase and at most 100 nM in experiment [1] (setting [2]).

Regarding `COc1cccc(S(=O)(=O)N2CC(=O)N(c3cc(-c4ccccc4)sc3C(=O)O)[C@H](C3CCCCC3)C2)c1` [Compound 107, 3-[(R)-2-Cyclohexyl-4-(3-methoxy-benzenesulfonyl)-6-oxo-piperazin-1-yl]-5-phenyl-thiophene-2-carboxylic acid], the IC50 was under 1 nM on HCV polymerase; 100 to 5000 nM in experiment [1] (between 100 nM and 5.0 uM).

For `Cc1ccc(-c2cc(N3C(=O)CN(S(=O)(=O)c4ccc(N5CCOCC5)nc4)C[C@H]3C3CCCCC3)c(C(=O)O)s2)cc1` [Compound 187, 3-[(R)-2-Cyclohexyl-4-(6-morpholin-4-yl-pyridine-3-sulfonyl)-6-oxo-piperazin-1-yl]-5-p-tolyl-thiophene-2-carboxylic acid], the IC50 on HCV polymerase was 1 nM; in experiment [1] (setting [2]), at most 100 nM.

Consider `O=C(O)c1sc(-c2ccc(Cl)cc2)cc1N1C(=O)CN(S(=O)(=O)c2ccc(N3CC4CCC(C3)O4)nc2)C[C@H]1C1CCCCC1` [Compound 227, 5-(4-Chloro-phenyl)-3-{(R)-2-cyclohexyl-4-[6-(8-oxa-3-aza-bicyclo[3.2.1]oct-3-yl)-pyridine-3-sulfonyl]-6-oxo-piperazin-1-yl}-thiophene-2-carboxylic acid], for which the IC50 at HCV polymerase was 1 nM; in experiment [1] (setting [2]) it was at most 100 nM.

Take `CC(C)(C)C#Cc1cc(N2C(=O)CN(S(=O)(=O)c3cccc(F)c3)C[C@H]2C2CCCCC2)c(C(=O)O)s1` [Compound 239, 3-[(R)-2-Cyclohexyl-4-(3-fluoro-benzenesulfonyl)-6-oxo-piperazin-1-yl]-5-(3,3-dimethyl-but-1-ynyl)-thiophene-2-carboxylic acid]: the figures for the IC50 (at HCV polymerase; in experiment [1] (setting [2])) were 2 nM and at most 100 nM, respectively.

As for `CC(C)S(=O)(=O)N1CC(=O)N(c2cc(C#CC(C)(C)C)sc2C(=O)O)[C@H](C2CCCCC2)C1` [Compound 221, 3-[(R)-2-Cyclohexyl-6-oxo-4-(propane-2-sulfonyl)-piperazin-1-yl]-5-(3,3-dimethyl-but-1-ynyl)-thiophene-2-carboxylic acid], the IC50 at HCV polymerase is 19 nM; in experiment [1] (between 100 nM and 5.0 uM) it was 100 to 5000 nM.

On to `CC(C)CS(=O)(=O)N1CC(=O)N(c2cc(-c3ccccc3)sc2C(=O)O)C(C2CCCCC2)C1` (centres unmarked) [Compound 38, 3-[2-Cyclohexyl-4-(2-methyl-propane-1-sulfonyl)-6-oxo-piperazin-1-yl]-5-phenyl-thiophene-2-carboxylic acid], for which the IC50 was 65 nM on HCV polymerase; 100 to 5000 nM in experiment [1] (between 100 nM and 5.0 uM).

As for `CC(C)c1ccc(S(=O)(=O)N2CC(=O)N(c3cc(-c4ccccc4)sc3C(=O)O)C(C3CCCCC3)C2)cc1` (centres unmarked) [Compound 100, 3-[2-Cyclohexyl-4-(4-isopropyl-benzenesulfonyl)-6-oxo-piperazin-1-yl]-5-phenyl-thiophene-2-carboxylic acid], the IC50 is 4 nM on HCV polymerase; 100 to 5000 nM in experiment [1] (between 100 nM and 5.0 uM).

With `CN1CCOc2cc(S(=O)(=O)N3CC(=O)N(c4cc(-c5ccccc5)sc4C(=O)O)C(C4CCCCC4)C3)cnc21` (centres unmarked) [Compound 99, 3-[2-Cyclohexyl-4-(4-methyl-3,4-dihydro-2H-pyrido[3,2-b][1,4]oxazine-7-sulfonyl)-6-oxo-piperazin-1-yl]-5-phenyl-thiophene-2-carboxylic acid], the IC50 was 2 nM at HCV polymerase and at most 100 nM in experiment [1] (setting [2]).

As to `CC1CN(c2ccc(S(=O)(=O)N3CC(=O)N(c4cc(-c5ccccc5)sc4C(=O)O)C(C4CCCCC4)C3)cn2)CC(C)O1` (centres unmarked) [Compound 87, 3-{2-Cyclohexyl-4-[6-(2,6-dimethyl-morpholin-4-yl)-pyridine-3-sulfonyl]-6-oxopiperazin-1-yl}-5-phenyl-thiophene-2-carboxylic acid], the values for the IC50 (at HCV polymerase; in experiment [1] (setting [2])) were 5 nM and at most 100 nM, respectively.

Turning to `C[C@@H]1CN(c2ccc(S(=O)(=O)N3CC(=O)N(c4cc(-c5ccccc5)sc4C(=O)O)[C@H](C4CCCCC4)C3)cn2)C[C@H](C)O1` [Compound 167, 3-{(R)-2-Cyclohexyl-4-[6-((2R,6S)-2,6-dimethyl-morpholin-4-yl)-pyridine-3-sulfonyl]-6-oxo-piperazin-1-yl}-5-phenyl-thiophene-2-carboxylic acid], the IC50 on HCV polymerase was 3.5 nM; in experiment [1] (setting [2]), at most 100 nM.

`O=C(O)c1sc(-c2ccccc2)cc1N1C(=O)CN(S(=O)(=O)c2ccc(-c3cccnc3)nc2)C[C@H]1C1CCCCC1` [Compound 214, 3-[(R)-4-([2,3′]Bipyridinyl-5-sulfonyl)-2-cyclohexyl-6-oxo-piperazin-1-yl]-5-phenyl-thiophene-2-carboxylic acid]: the IC50 was 1 nM at HCV polymerase; 100 to 5000 nM in experiment [1] (between 100 nM and 5.0 uM).

With `C[C@@H](O)C[C@H]1OC[C@@H](C2CCCCC2)N(c2cc(C#CC(C)(C)C)sc2C(=O)O)C1=O` [Compound 336, 3-[(2R,5R)-5-Cyclohexyl-2-((R)-2-hydroxy-propyl)-3-oxo-morpholin-4-yl]-5-(3,3-dimethyl-but-1-ynyl)-thiophene-2-carboxylic acid], the IC50 was 3 nM on HCV polymerase and at most 100 nM in experiment [1] (setting [2]).

For the compound `N[C@H]1CCCN(c2ccc(S(=O)(=O)N3CC(=O)N(c4cc(-c5ccccc5)sc4C(=O)O)[C@H](C4CCCCC4)C3)cn2)C1` [Compound 142, 3-[(R)-4-((S)-3-Amino-3,4,5,6-tetrahydro-2H-[1,2′]bipyridinyl-5′-sulfonyl)-2-cyclohexyl-6-oxo-piperazin-1-yl]-5-phenyl-thiophene-2-carboxylic acid], the IC50 at HCV polymerase is 2 nM; in experiment [1] (between 100 nM and 5.0 uM), 100 to 5000 nM.

In the case of `CCN(CC)c1ccc(S(=O)(=O)N2CC(=O)N(c3cc(-c4ccccc4)sc3C(=O)O)C(C3CCCCC3)C2)cn1` (centres unmarked) [Compound 69, 3-[2-Cyclohexyl-4-(6-diethylamino-pyridine-3-sulfonyl)-6-oxo-piperazin-1-yl]-5-phenyl-thiophene-2-carboxylic acid], the IC50 is 2 nM on HCV polymerase and at most 100 nM in experiment [1] (setting [2]).

With `O=C(O)c1sc(-c2ccccc2)cc1N1C(=O)CN(Cc2ccc(Cl)nc2)C[C@H]1C1CCCCC1` [Compound 267, 3-[(R)-4-(6-Chloro-pyridin-3-ylmethyl)-2-cyclohexyl-6-oxo-piperazin-1-yl]-5-phenyl-thiophene-2-carboxylic acid], the IC50 on HCV polymerase is 64 nM; in experiment [1] (between 100 nM and 5.0 uM), 100 to 5000 nM.

In the case of `O=C(O)c1sc(-c2ccccc2)cc1N1C(=O)CN(S(=O)(=O)c2cccnc2)CC1C1CCCCC1` (centres unmarked) [Compound 108, 3-[2-Cyclohexyl-6-oxo-4-(pyridine-3-sulfonyl)-piperazin-1-yl]-5-phenyl-thiophene-2-carboxylic acid], the IC50 at HCV polymerase is 37 nM; in experiment [1] (between 100 nM and 5.0 uM), 100 to 5000 nM.

Consider `Cc1nc(S(=O)(=O)N2CC(=O)N(c3cc(C#CC(C)(C)C)sc3C(=O)O)[C@H](C3CCCCC3)C2)cn1C` [Compound 248, 3-[(R)-2-Cyclohexyl-4-(1,2-dimethyl-1H-imidazole-4-sulfonyl)-6-oxopiperazin-1-yl]-5-(3,3-dimethyl-but-1-ynyl)-thiophene-2-carboxylic acid], for which the IC50 is 2 nM on HCV polymerase and at most 100 nM in experiment [1] (setting [2]).
